Consider ten molecules from US10544152B2, “5-HT2CR agonist analogs” (The Board of Regents of The University of Texas System, priority 2017, dated 2020).

Read-outs that look alike come from different tables or passages of the source.

As usually defined, the Emax is the size of the effect at its maximum, as opposed to the concentration needed. In general, EC50 refers to the concentration at which the effect is half-maximal. By inhibition is commonly meant the share of the control response that was lost under treatment.

The target in experiment [1] is T1, 5-HT2CR (Homo sapiens (Human), UniProt P28335). In words: Intracellular calcium (Cai++) release assay, FLIPR Calcium 4, U2OS cells stably expressing 5-HT2CR. The format is cell-based. The settings on record: for Emax: % Cai++ release obtained with 1 μM of WAY163909 (1), U2OS cells expressing human 5-HT2CR; for EC50: Cai++ release, U2OS cell line stably expressing human 5-HT2CR, mean ± SEM, at least three independent experiments. The method, then:
The PathHunter® U2OS HTR2C β-Arrestin cell line (5-HT2cR-U2OS; DiscoveRx) stably express the nonedited human 5-HT2CR isoform (h5-HT2CR). The 5-HT2CR-U2OS cells were grown in Assay Complete™ U2OS Medium 31 (DiscoveRx) at 37° C., 5% CO2 and 85% relative humidity according to manufacturer's recommendations utilizing AssayComplete™ Cell Detachment Reagent (DiscoveRx). Cells were passaged at 70-80% confluence and all experiments were conducted using cells in log phase growth.
The ability of the molecules to act as agonists to induce 5-HT2CR-mediated intracellular calcium (Cai^++) release was conducted in an U2OS cell line stably expressing the human 5-HT2CR.
Intracellular calcium (Cai^++) release was monitored using the FLIPR Calcium 4 Assay Kit (Molecular Devices) according to previously published protocols with minor modifications. See, e.g., Shashack, M. J., et al., ACS Chem Neurosci. 2 (11), 640-644 (2011); Seitz, P. K.; Bremer, N. M., et al., BMC Neurosci. 13, 25 (2012).
Cells were plated at 5,000-7,000 cells/well in Assay Complete™ Cell Plating Reagent 16 (DiscoveRx) in black-sided, clear bottomed 96-well tissue culture plates and allowed to adhere overnight. Medium was removed and replaced with 40 μl Hank's balanced salt solution without calcium, magnesium and phenol red (HBSS; Corning) plus 40 μl Calcium 4 dye solution in Buffer B supplemented with 2.5 mM probenecid (Sigma-Aldrich) to inhibit extracellular dye transport. Plates were incubated for 60 min at 37° C. followed by 30 min at room temperature in the dark.
Fluorescence (λex=485 nm, λem=525 nm) was measured using a FlexStation3 (Molecular Devices). Baseline was established for 17 secs before addition of 20 μl vehicle (HBSS without calcium or magnesium) or 5× concentrated compound. […] Maximum peak height was determined using FlexStation software (SoftMax Pro 5.4). After the final readings, cells were fixed in 2% paraformaldehyde overnight.
Peak responses from each well were normalized to total cell mass as determined with crystal violet staining. See e.g., Ding, C. et al., ACS Chem. Neurosci 3 (7), 538-545 (2012). […] Potency of the compounds was determined using the EC50 (concentration of compound required to achieve half-maximal response). The EC50 values were determined using 4-parameter nonlinear regression analysis and calculated from at least three independent experiments, each conducted in triplicate, and are presented as mean±SEM. Ratkowsky, D. A., et al., Biometrics 42, 575-582 (1986).
For orientation: A change in cytosolic calcium serves as a functional read-out for many receptors and channels.

For experiment [2], the target named is T1, 5-HT2CR. In words: CEREP radioligand displacement of [125I]-(±)-DOI at 5-HT2CR. The settings on record: duplicate, read-out: mean percent inhibition of control specific binding, 5-HT2CR. As for the experimental part: (§1) Compounds were submitted to CEREP to determine receptor selectivity at the 5-HT2 Compounds were tested at a single concentration of 10 μM in duplicate to determine their ability to displace [^125I]-(±)-DOI. The data are presented as mean percent inhibition of control specific binding for compound tested at each receptor subtype (Table 2). Significant inhibition is considered >50%; 25-50% inhibition is indicative of weak to moderate effects.
In general terms: Displacement assays read how much labelled ligand stays bound in the presence of the test substance.

Experiment [3] addresses 5-HT2BR (Homo sapiens (Human), UniProt P41595). The experiment in a line: CEREP radioligand displacement of [125I]-(±)-DOI at 5-HT2BR. The settings on record: duplicate, read-out: mean percent inhibition of control specific binding, 5-HT2BR. The method, then: as §1
For experiment [4], the target named is 5-HT2AR (Homo sapiens (Human), UniProt P28223). In words: CEREP radioligand displacement of [125I]-(±)-DOI at 5-HT2AR. The settings on record: read-out: mean percent inhibition of control specific binding, 5-HT2AR. As for the experimental part:
as §1

T1 sequence (P28335 33-458): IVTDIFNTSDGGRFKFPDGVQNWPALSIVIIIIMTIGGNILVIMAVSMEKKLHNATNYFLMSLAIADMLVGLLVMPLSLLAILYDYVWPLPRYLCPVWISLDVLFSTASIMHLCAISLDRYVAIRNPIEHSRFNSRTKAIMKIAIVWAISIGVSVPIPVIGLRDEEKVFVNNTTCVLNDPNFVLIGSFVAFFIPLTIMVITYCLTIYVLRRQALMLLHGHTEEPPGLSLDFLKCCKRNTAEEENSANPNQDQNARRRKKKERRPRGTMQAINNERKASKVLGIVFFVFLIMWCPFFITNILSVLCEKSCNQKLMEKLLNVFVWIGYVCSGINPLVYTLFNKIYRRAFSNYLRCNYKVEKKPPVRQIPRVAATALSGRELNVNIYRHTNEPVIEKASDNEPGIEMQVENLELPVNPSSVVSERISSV
5-HT2BR, sequence (P41595 whole entry): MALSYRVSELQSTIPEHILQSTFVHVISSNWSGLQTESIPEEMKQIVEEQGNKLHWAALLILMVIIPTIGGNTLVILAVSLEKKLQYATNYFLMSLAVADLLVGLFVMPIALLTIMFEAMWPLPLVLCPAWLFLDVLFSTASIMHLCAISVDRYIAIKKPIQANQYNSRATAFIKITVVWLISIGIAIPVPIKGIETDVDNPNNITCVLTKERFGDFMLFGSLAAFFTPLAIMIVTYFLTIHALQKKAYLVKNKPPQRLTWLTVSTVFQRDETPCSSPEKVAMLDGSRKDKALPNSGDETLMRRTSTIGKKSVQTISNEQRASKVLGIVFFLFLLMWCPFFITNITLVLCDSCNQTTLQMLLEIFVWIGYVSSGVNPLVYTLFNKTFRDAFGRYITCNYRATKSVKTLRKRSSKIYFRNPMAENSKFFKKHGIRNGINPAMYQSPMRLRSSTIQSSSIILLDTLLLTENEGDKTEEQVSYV
5-HT2AR, sequence (P28223 whole entry): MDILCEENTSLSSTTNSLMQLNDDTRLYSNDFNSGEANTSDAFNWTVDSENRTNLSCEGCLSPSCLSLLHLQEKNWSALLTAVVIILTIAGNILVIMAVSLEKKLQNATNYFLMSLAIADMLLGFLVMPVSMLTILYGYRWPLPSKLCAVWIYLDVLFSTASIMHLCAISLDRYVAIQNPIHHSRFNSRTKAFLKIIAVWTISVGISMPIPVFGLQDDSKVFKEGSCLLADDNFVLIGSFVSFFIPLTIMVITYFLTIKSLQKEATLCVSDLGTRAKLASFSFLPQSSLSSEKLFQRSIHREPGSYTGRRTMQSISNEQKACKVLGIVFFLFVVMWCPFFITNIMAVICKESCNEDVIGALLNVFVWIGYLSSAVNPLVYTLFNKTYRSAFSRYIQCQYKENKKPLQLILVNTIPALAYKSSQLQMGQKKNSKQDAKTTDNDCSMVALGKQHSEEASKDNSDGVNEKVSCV

In the case of `COc1ccc2c3c1C1CCCC1N3CCNC2` (racemic) [Compound 18, 7-methoxy-2,3,4,7b,8,9,10,10a-octahydro-1H-cyclopenta[b][1,4]diazepino[6,7,1-hi]indole], in experiment [1], the Emax was 103 ± 4.6% and the concentration for a half-maximal effect (EC50) turned out to be 2.4 ± 0.4 nM.

Take `C#CCOCCOCCOc1ccc2c3c1C1CCCC1N3CCNC2` (racemic) [Compound 45, 7-(2-(2-(prop-2-ynyloxy)ethoxy)ethoxy)-2,3,4,7b,8,9,10,10a-octahydro-1H-cyclopenta[b][1,4]diazepino[6,7,1-hi]indole]: the inhibition at 10 µM came out at 99.6% in experiment [2]; 67.7% in experiment [3]; 67.1% in experiment [4] (10 μM, duplicate, displacement of [125I]-(±)-DOI). Also, in experiment [1], the maximal effect (Emax) stood at 99.3 ± 2.2%. The EC50 in experiment [1] is 218 ± 53.1 nM.

For the molecule `COc1ccc2c3c1[C@@H]1CCC[C@@H]1N3CCNC2` (stereo in doubt) [Compound 37, 7-methoxy-2,3,4,7b,8,9,10,10a-octahydro-1H-cyclopenta[b][1,4]diazepino[6,7,1-hi]indole], the values for the inhibition at 10 µM in experiment [2], in experiment [3] and in experiment [4] were 91.5%, 4.8% and 22.8%, respectively. Also, the Emax in experiment [1] came out at 97.6 ± 4.7%. Also, in experiment [1], the EC50 was 72.4 ± 14.5 nM.

For `COc1cc2c3c(c1)[C@H]1CCC[C@H]1N3CCNC2` (racemic) [Compound 17], in experiment [1], the Emax came to 95.9 ± 1.5% and the EC50 was 1480 ± 238 nM.

Regarding `OCCc1c[nH]c2ccc(O)cc12` [Compound 27, reference compound], in experiment [1], the Emax was found to be 100% and the half-maximal effective concentration (EC50) amounted to 0.33 ± 0.1 nM.

As for `Oc1ccc2c3c1[C@H]1CCC[C@H]1N3CCNC2` (racemic) [Compound 35], in experiment [1], the maximum response (Emax) stood at 95.9 ± 2.6% and the 50% effective concentration (EC50) was found to be 119 ± 11.5 nM.

Consider `c1cc2c3c(c1)[C@H]1CCC[C@H]1N3CCNC2` (racemic) [Compound 1, (7bR,10aR)-1,2,3,4,8,9,10,10a-octahydro-7bH-cyclopenta-[b][1,4]diazepino[6,7,1hi]indole, reference compound], for which the maximum response (Emax) in experiment [1] amounted to 100%.

For `COc1ccc2c3c1[C@H]1CCC[C@H]1N3CCNC2` (racemic) [Compound 36, 7-methoxy-2,3,4,7b,8,9,10,10a-octahydro-1H-cyclopenta[b][1,4]diazepino[6,7,1-hi]indole], the inhibition at 10 µM in experiment [2] stood at 100%; in experiment [3], 98.6%; in experiment [4], 86.5%. In experiment [1], the Emax turned out to be 105 ± 6.1%. Besides, the EC50 in experiment [1] is 1.2 ± 0.3 nM.

Turning to `C#CCOCCOCCOCCOc1ccc2c3c1C1CCCC1N3CCNC2` (stereo not shown) [Compound 46, 7-(2-(2-(2-(prop-2-ynyloxy)ethoxy)ethoxy)ethoxy)-2,3,4,7b,8,9,10,10a-octahydro-1H-cyclopenta[b][1,4]diazepino[6,7,1-hi]indole], in experiment [1], the Emax amounted to 95.2 ± 2.3% and the EC50 was 575 ± 112 nM.

As for `C#CCOCCOc1ccc2c3c1C1CCCC1N3CCNC2` (racemic) [Compound 44, 7-(2-(Prop-2-ynyloxy)ethoxy)-2,3,4,7b,8,9,10,10a-octahydro-1H-cyclopenta[b][1,4]diazepino[6,7,1-hi]indole], in experiment [1], the Emax amounted to 97.2 ± 2.3% and the concentration giving a half-maximal response (EC50) turned out to be 51.9 ± 9.6 nM.
